Data reported in patent US20260223861A1, “NATURAL PESTICIDAL COMPOSITIONS AND METHODS OF CONTROLLING ARTHROPODS” (TERRAMERA, INC., priority 2023, published 2026).
Where “and” joins values, the source holds several entries; their conditions need not be identical. Equal values may be shown once.

System: German cockroaches
Test: Spraying compositions on German cockroaches, knock-down and mortality (dead incl. moribund) observed
Assay type: in vivo
Conditions: knocked-down and dead insects, concentrations w/w in water
Experimental: In the following in vitro examples, various compounds were combined and the resulting composition was tested for efficacy. Each composition was mixed using a magnetic stir bar at room temperature (21° C.), except as otherwise noted herein. […] Water-insoluble and/or -immiscible ingredients, such as wintergreen oil, geraniol, oleic acid, and Na oleate, were dissolved and mixed as a separate fraction (the water-insoluble fraction). The water-insoluble fraction was then mixed with the water-soluble fraction by gentle stirring. All tested compositions comprised the tested compounds in solution with water. Each composition was tested for efficacy by spraying the composition on German cockroaches and observing the number of knocked-down and dead (including moribund) insects twice, once at 5 minutes after spraying and once at 48 hours after spraying. Either such measure of knock-down and mortality can be important in certain contexts. For example, 5-minute knock-down and mortality can be important in consumer contexts, as efficacy is often assessed over a short interval in such contexts. Shorter intervals, such as 30 seconds or 1 minute, are also or alternatively sometimes used in such contexts. As another example, 48-hour knock-down and mortality can be important in agricultural or industrial contexts, as total reduction in pest pressure may be more readily assessed over longer periods in such contexts. […] Ingredients were also tested for efficacy on their own (in dilution in water to provide the same concentration of the ingredient as in the tested compositions) using the same testing procedure. An expected efficacy for each formulation was determined based on the ingredients' individual tested efficacies based on the Colby equation, as described in greater detail by Ferry, Nancy; Stanley, Bruce H.; and Armel, Gregory (2005). “DESIGN AND […] OF BIOLOGICAL ASSAYS OF MIXTURES,” Conference on Applied Statistics in Agriculture. https://doi.org/10.4148/2475-7772.1133. Compositions with efficacy greater than this expected efficacy were determined to show synergistic efficacy.

[1] = 5 minutes after spraying, sulfate
[2] = 48 hours after spraying, sulfate

| Structure (SMILES) | Observed Efficacy (5 minutes after spraying) | Observed Efficacy (48 hours after spraying) | other results |
| --- | --- | --- | --- |
| CCCCOC(=O)C(C)O (stereo not shown) [Butyl Lactate (2.5%), Butyl lactate] | 0% | 0% | – |
| CCCCCCCCCCCCOS(=O)(=O)[O-].[Na+] [Sodium Lauryl Sulfate (1.25%), Sodium lauryl sulfate] | – | – | Observed Efficacy [1]: 0%; Observed Efficacy [2]: 0% |
| CC(C)=CCC/C(C)=C/CO [Geraniol (2.5%), Geraniol] | 20% | 20% | – |
| CCCCCCCC/C=C\CCCCCCCC(=O)O [Oleic Acid (20%), Oleic acid] | 5% and 0% | 5% and 0% | – |
| CC(C)=CCC/C(C)=C/CO [Geraniol (10%), Geraniol] | 27% | 27% | – |
| CCCCCCCC/C=C\CCCCCCCC(=O)OCC(O)CO (stereo not shown) [Glycerol Monooleate (1.25%), Glycerol monooleate] | 0% | 0% | – |
| [Cl-].[Na+] [NaCl (2.5%), NaCl] | 0% | 0% | – |
| CCCCCCCCCCCCOS(=O)(=O)[O-].[Na+] [Sodium Lauryl Sulfate (10%), Sodium lauryl sulfate] | – | – | Observed Efficacy (5 minutes after spraying, listed as Sodium lauryl sulfate (10%), sulfate): 0%; Observed Efficacy [1]: 0%; Observed Efficacy (48 hours after spraying, listed as Sodium lauryl sulfate (10%), sulfate): 0%; Observed Efficacy [2]: 0% |
| CCCCCCCCCCCCOS(=O)(=O)[O-].[Na+] [Sodium Lauryl Sulfate (2.5%), Sodium lauryl sulfate] | – | – | Observed Efficacy [1]: 0%; Observed Efficacy [2]: 0% |
| CC(C)=CCC/C(C)=C/CO [Geraniol (20%), Geraniol] | 5% | 5% | – |
| CCCCOC(=O)C(C)O (stereo not shown) [Butyl Lactate (10%), Butyl lactate] | 7% | 7% | – |
| CCCCOC(=O)C(C)O (stereo not shown) [Butyl Lactate (20%), Butyl lactate] | 13% | 13% | – |
| CC(C)O [Isopropyl alcohol (5%), Isopropyl alcohol] | 0% | 0% | – |
| CC(C)O [Isopropyl alcohol (10%), Isopropyl alcohol] | 0% | 0% | – |
| CC(C)=CCC/C(C)=C/CO [Geraniol (5%), Geraniol] | 7% | 7% | – |
| CCCCCCCCCCCCOS(=O)(=O)[O-].[Na+] [Sodium Lauryl Sulfate (5%), Sodium lauryl sulfate] | – | – | Observed Efficacy (5 minutes after spraying, listed as Sodium lauryl sulfate (5%), sulfate): 7%; Observed Efficacy [1]: 7%; Observed Efficacy (48 hours after spraying, listed as Sodium lauryl sulfate (5%), sulfate): 7%; Observed Efficacy [2]: 7% |
| CCCCOC(=O)C(C)O (stereo not shown) [Butyl Lactate (5%), Butyl lactate] | 13% | 13% | – |
| CCCCCCCC/C=C\CCCCCCCC(=O)O [Oleic Acid (5%), Oleic acid] | 0% | 0% | – |
